Measured values published in patent publication US9546153B2, “Bicyclic heterocycle substituted pyridyl compounds useful as kinase modulators” (BRISTOL-MYERS SQUIBB COMPANY, priority 2012, dated 2017).
Read-outs that look alike come from different tables or passages of the source.

Experiments:
IRAK4 = IRAK4 (Homo sapiens (Human), UniProt Q9NWZ3); experiment: IRAK4 Inhibition Assay; assay type: biochemical; conditions: ATP 500 μM; IRAK4 0.6 nM; 60 min at room temperature
Protocol: The assays were performed in U-bottom 384-well plates. […] The reaction was initiated by the combination of IRAK4 with substrates and test compounds. The reaction was incubated at room temperature for 60 min. and terminated by adding 45 μL of 35 mM EDTA to each sample. The reaction mixture was analyzed on the Caliper LABCHIP® 3000 (Caliper, Hopkinton, Mass.) by electrophoretic separation of the fluorescent substrate and phosphorylated product.

[1] = test system: TLR2 induced IL-6 in peripheral blood mononuclear cells (PBMCs); experiment: PBMC TLR2 Induced IL-6 Assay; assay type: cell-based, human; conditions: human PBMCs, 10 μg/ml lipoteichoic acid for 5 hours, IL-6 by ELISA; for EC50: EC50 determinations are indicated with an asterisk, read-out: Cell EC50 (asterisk); for IC50: value without asterisk, read-out: Cell IC50
Method in brief: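 IL-6 ELISA of supernatants after a 5 h challenge with the TLR2 agonist lipoteichoic acid (10 μg/ml). Before stimulation, human PBMCs (250000 cells/well; RPMI, 10% heat-inactivated FCS) received compound for 30 min at 37° C. Values given as IC50 or EC50.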

IRAK4, sequence (Q9NWZ3 whole entry, species assumed): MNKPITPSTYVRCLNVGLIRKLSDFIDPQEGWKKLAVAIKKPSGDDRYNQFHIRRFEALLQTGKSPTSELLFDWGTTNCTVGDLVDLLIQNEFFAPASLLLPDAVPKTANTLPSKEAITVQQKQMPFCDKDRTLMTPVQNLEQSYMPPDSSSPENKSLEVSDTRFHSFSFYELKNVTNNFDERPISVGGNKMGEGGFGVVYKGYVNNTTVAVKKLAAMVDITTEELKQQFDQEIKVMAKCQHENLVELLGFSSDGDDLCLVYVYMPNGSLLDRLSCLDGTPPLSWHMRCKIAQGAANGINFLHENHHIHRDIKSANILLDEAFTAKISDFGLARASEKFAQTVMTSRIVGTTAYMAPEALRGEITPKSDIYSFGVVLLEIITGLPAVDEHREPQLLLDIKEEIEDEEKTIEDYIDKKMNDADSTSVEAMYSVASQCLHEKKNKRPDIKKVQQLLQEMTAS

SMILES | IC50 (IRAK4) | EC50 ([1]; Homo sapiens, PBMC, 5 h) | EC50 [1] | IC50 ([1]; Homo sapiens, PBMC, 5 h) | IC50 [1]
CC(C)(F)CNc1cc(Nc2ncc3ncsc3c2F)ncc1C(=O)NC1CCC(C(C)(C)O)CC1 (centres unmarked) [Example 489] | 8.2 nM | 374 nM | – | – | –
CC(C)(O)C1CCC(NC(=O)c2cnc(Nc3ccc4ncsc4c3)cc2NC2CCCOC2)CC1 (centres unmarked) [Example 490] | 4.2 nM | 277 nM | – | – | –
CC(C)(O)C1CCC(NC(=O)c2cnc(Nc3ccc4ncsc4c3)cc2NC2CCCOC2)CC1 (centres unmarked) [Example 491] | 5 nM | – | 281 nM | – | –
CCNc1cc(Nc2nc3ccnn3cc2F)ncc1C(=O)NC1CCC(C(C)(C)O)CC1 (centres unmarked) [Example 492] | 12.1 nM | 454 nM | – | – | –
CC(C)(O)C(F)(F)CNC(=O)c1cnc(Nc2nc3scnc3cc2F)cc1NC1CC1 [Example 493] | 4.3 nM | 365 nM | – | – | –
CC(C)Nc1cc(Nc2ccc3ncsc3c2)ncc1C(=O)NC1CCc2[nH]ncc2C1 (centres unmarked) [Example 494] | 8.5 nM | 209 nM | – | – | –
CC(C)(O)[C@H](F)CNC(=O)c1cnc(Nc2ncc3ccc(F)cc3n2)cc1NC1CCOCC1 [Example 495] | 11.9 nM | 447 nM | – | – | –
CC(C)(O)[C@H](F)CNC(=O)c1cnc(Nc2nc3ccnn3cc2F)cc1NC1CCCCC1(F)F (some centres unmarked) [Example 496] | 6.4 nM | – | 91 nM | – | –
CC(C)(O)[C@H](F)CNC(=O)c1cnc(Nc2nc3ccnn3cc2F)cc1NC1CCCCC1(F)F (some centres unmarked) [Example 497] | 15.2 nM | – | 299 nM | – | –
CC(C)(O)[C@H](F)CNC(=O)c1cnc(Nc2cc3nccnc3cc2F)cc1NC1CCC1 [Example 500] | 5.4 nM | 228 nM | – | – | –
CC(C)Nc1cc(Nc2cc3nccnc3cc2F)ncc1C(=O)NC[C@@H](F)C(C)(C)O [Example 501] | 4.5 nM | 209 nM | – | – | –
CC(CCF)Nc1cc(Nc2nc3ccnn3cc2F)ncc1C(=O)NC[C@@H](F)C(C)(C)O (some centres unmarked) [Example 502] | 4.8 nM | 144 nM | – | – | –
CNC(=O)[C@H]1CC[C@H](NC(=O)c2cnc(Nc3ccc4ncsc4c3)cc2NC2CCC2)CC1 [Example 504] | 4.7 nM | – | – | 496 nM | –
CNC(=O)[C@H]1CC[C@H](NC(=O)c2cnc(Nc3ccc4ncsc4c3)cc2NCC(F)(F)F)CC1 [Example 506] | 6.5 nM | – | – | 320 nM | –
CNC(=O)[C@H]1CC[C@H](NC(=O)c2cnc(Nc3cnc4[nH]ccc4c3)cc2NC(C)C)CC1 [Example 507] | 12 nM | – | – | 523 nM | –
CNC(=O)[C@H]1CC[C@H](NC(=O)c2cnc(Nc3nc4ccnn4cc3F)cc2NC2CC2)CC1 [Example 508] | 10.2 nM | – | – | 10000 nM | –
CNC(=O)[C@H]1CC[C@H](NC(=O)c2cnc(Nc3nc4ccnn4cc3F)cc2NC2CCOCC2)CC1 [Example 509] | 9.5 nM | – | – | 1200 nM | –

SMILES | IC50 (IRAK4) | EC50 ([1]; Homo sapiens, PBMC, 5 h) | EC50 [1] | IC50 ([1]; Homo sapiens, PBMC, 5 h) | IC50 [1]
CNC(=O)[C@H]1CC[C@H](NC(=O)c2cnc(Nc3ccc4ncsc4n3)cc2NC2CCOCC2)CC1 [Example 510] | 1.5 nM | 28 nM | – | – | –
CC(=O)N[C@H]1CC[C@H](NC(=O)c2cnc(Nc3ccc4ncsc4c3)cc2N[C@H]2CCOC[C@@H]2F)CC1 [Example 511] | 4.2 nM | – | – | 611 nM | –
CC(=O)N[C@H]1CC[C@H](NC(=O)c2cnc(Nc3nc4ccnn4cc3F)cc2NC(C)C)CC1 [Example 512] | 17.4 nM | – | – | 602 nM | –
CC(=O)N[C@H]1CC[C@H](NC(=O)c2cnc(Nc3nc4ccnn4cc3F)cc2NC2CCOCC2)CC1 [Example 513] | 9.4 nM | – | – | 1570 nM | –
CC(=O)N[C@H]1CC[C@H](NC(=O)c2cnc(Nc3ccc4ncsc4n3)cc2NC2CCOCC2)CC1 [Example 514] | 1.8 nM | 26 nM | – | – | –
CC(C)(O)[C@H](F)CNC(=O)c1cnc(Nc2cc3scnc3cc2F)cc1NCC(F)(F)F [Example 515] | 3.4 nM | – | – | 450 nM | –
CCNc1cc(Nc2cc3scnc3cc2F)ncc1C(=O)NC[C@@H](F)C(C)(C)O [Example 516] | 3.1 nM | – | – | 1200 nM | –
CC(C)(O)[C@H](F)CNC(=O)c1cnc(Nc2cc3scnc3cc2F)cc1NC1CCCOC1 (some centres unmarked) [Example 517] | 6 nM | – | – | 1290 nM | –
CC(C)(O)[C@H](F)CNC(=O)c1cnc(Nc2cc3scnc3cc2F)cc1NC1CCCOC1 (some centres unmarked) [Example 518] | 3.8 nM | – | – | – | 1840 nM
CC(C)(O)[C@H](F)CNC(=O)c1cnc(Nc2nc3scnc3cc2F)cc1NCC(F)(F)F [Example 519] | 2.2 nM | – | – | 634 nM | –
CC(C)(O)[C@H](F)CNC(=O)c1cnc(Nc2cc3scnc3cc2F)cc1NC1CCOCC1 [Example 520] | 2.5 nM | – | – | 1060 nM | –
CC(C)Nc1cc(Nc2ccc3ncsc3c2)ncc1C(=O)NC1CCc2nc(N)sc2C1 (centres unmarked) [Example 521] | 8.5 nM | – | – | 2330 nM | –
CC(C)Nc1cc(Nc2ccc3ncsc3c2)ncc1C(=O)N[C@H]1CC[C@H]([N+](=O)[O-])CC1 [Example 523, 6-(benzo[d]thiazol-6-ylamino)-4-(isopropylamino)-N-((trans)-4-nitrocyclohexyl)nicotinamide] | 5.4 nM | 365 nM | – | – | –
CC(C)Nc1cc(Nc2ccc3ncsc3c2)ncc1C(=O)NC1CCC(O)(c2ccnn2C)CC1 (centres unmarked) [Example 524] | 3.7 nM | 75 nM | – | – | –
CC(C)Nc1cc(Nc2ccc3ncsc3c2)ncc1C(=O)NC1CCC2(CC1)NC(=O)NC2=O (centres unmarked) [Example 525, 6-(benzo[d]thiazol-6-ylamino)-N-(2,4-dioxo-1,3-diazaspiro[4.5]decan-8-yl)-4-(isopropylamino)nicotinamide] | 1.5 nM | 131 nM | – | – | –
CC(C)Nc1cc(Nc2ccc3ncsc3c2)ncc1C(=O)NC1CCC(=O)CC1 [Example 526, 6-(benzo[d]thiazol-6-ylamino)-4-(isopropylamino)-N-(4-oxocyclohexyl)nicotinamide] | 6.6 nM | 423 nM | – | – | –
CC(C)Nc1cc(Nc2ccc3ncsc3c2)ncc1C(=O)NC1CCc2nnnn2CC1 (centres unmarked) [Example 527, 6-(benzo[d]thiazol-6-ylamino)-4-(isopropylamino)-N-(6,7,8,9-tetrahydro-5H-tetrazolo[1,5-a]azepin-7-yl)nicotinamide] | 7.7 nM | 320 nM | – | – | –
